Source: the RepoRT retention time repository (doi:10.1038/s41586-021-03707-9)

Tests used:
[1] = RP, Waters ACQUITY UPLC HSS C18, 100 × 2.1 mm, 1.7 µm, 40 °C, 0.35 mL/min, estimated dead time 0.63 min; A: water + 0.1% formic acid; B: methanol + 0.1% formic acid; gradient (min/%B) 0/0.5 4/70 4.5/98 5.4/98; conditions: stereoisomer not certain
[2] = Waters ACQUITY UPLC BEH C18, 100 × 2.1 mm, 1.7 µm, 40 °C, 0.28 mL/min, estimated dead time 0.63 min; A: water + 6.5 mM ammonium hydroxide; B: methanol + 6.5 mM ammonium hydroxide; gradient (min/%B) 0/0.5 4/70 4.5/98 5.4/98; conditions: stereoisomer not certain

LC retention time [1] [min]	LC retention time [2] [min]	SMILES
3.65	2.18	COc1cccc(OC)c1C(=O)O
2.44	1.1	NC(Cc1ccc(O)c([N+](=O)[O-])c1)C(=O)O (centres undefined)
1.76	2.36	NC(=O)C1CCCN1C(=O)C(Cc1cnc[nH]1)NC(=O)C1CCC(=O)N1 (centres undefined)
3.1	0.892	O=C(O)c1ccc(O)cc1
3.35	0.865	O=C(O)CCCCCCC(=O)NCC(=O)O
0.783	1	Nc1ccnc(=O)[nH]1
0.864	0.865	OCC1OCC(O)C(O)C1O (centres undefined)
1.14	1.2	O=C(O)c1ccccn1
3	2.29	Cn1c(=O)c2c([nH]c(=O)n2C)n(C)c1=O
2.23	1.49	O=C(O)Cc1cc(O)ccc1O
2.83	1.95	Oc1ccc(O)cc1
5	4.37	O=C(O)CCCCc1ccccc1
0.804	0.831	OCC1OC(OCC2OC(O)C(O)C(O)C2O)C(O)C(O)C1O (centres undefined)
0.912	0.926	Nc1ccn(C2OC(CO)C3OP(=O)(O)OC32)c(=O)n1 (centres undefined)
1.77	0.918	CC(=O)NC(C)C(=O)O (centres undefined)
4.22	2.49	[2H]c1[nH]c2c([2H])c([2H])c([2H])c([2H])c2c1CC(=O)O
0.864	0.849	CC(=O)OC(CC(=O)[O-])C[N+](C)(C)C (centres undefined)
5.18	4.12	CCCCCCC(O)C(=O)O (centres undefined)
2.57	0.924	Nc1c(O)cccc1C(=O)O
4.13	4.22	COc1cc(O)cc(OC)c1
1.18	1.19	O=c1cc[nH]c(=O)[nH]1
0.822	0.848	C[n+]1cccc(C(=O)[O-])c1
0.903	0.916	CC(=O)NC(CCCCN)C(=O)O (centres undefined)

LC retention time [1] [min]	LC retention time [2] [min]	SMILES
0.766	0.796	NC(=O)NCCCC(N)C(=O)O (centres undefined)
2.78	1.81	Cn1c(=O)[nH]c2[nH]c(=O)n(C)c2c1=O
4.43	4.59	CC1C(=O)Nc2ccccc21 (centres undefined)
2.97	2.17	CCC(C)C(=O)NCC(=O)O (centres undefined)
5.37	4.61	CC(C(=O)O)c1cccc(C(=O)c2ccccc2)c1 (centres undefined)
5.02	5.22	CC12CCC(=O)C=C1CCC1C2C(O)CC2(C)C1CCC2(O)C(=O)CO (centres undefined)
3.01	0.847	Nc1nc2ncc(CNc3ccc(C(=O)NC(CCC(=O)O)C(=O)O)cc3)nc2c(=O)[nH]1 (centres undefined)
0.759	0.801	NC(N)=NCC(=O)O
1.88	1.94	Cc1c[nH]c(=O)[nH]c1=O
2.78	1.75	CSCCC(NC=O)C(=O)O (centres undefined)
4.85	5.01	COC(=O)Cc1c[nH]c2ccccc12
1.85	1.87	O=c1ccn(C2CC(O)C(CO)O2)c(=O)[nH]1 (centres undefined)
0.911	1.62	Cc1cnc(=O)[nH]c1N
0.85	1.77	Cc1ncc(CO)c(C=O)c1O
1.66	1.67	O=c1ccn(C2OC(CO)C(O)C2O)c(=O)[nH]1 (centres undefined)
3.56	2.74	Cc1ccccc1C(=O)NCC(=O)O
5.22	4.67	CCCCCCCC(=O)NCC(=O)O
4.6	4.75	NC(=O)CCCCC1CCSS1 (centres undefined)
0.779	0.778	NC1(C(=O)O)CC1
2.98	2.07	CSCCC(NC(C)=O)C(=O)O (centres undefined)
0.854	0.876	CC(=O)OCC(N)C(=O)O (centres undefined)
2.24	4.29	CCN1CCCC1CNC(=O)c1cc(S(N)(=O)=O)ccc1OC (centres undefined)
2.01	3.81	CCN(CC)CCNC(=O)c1ccc(N)cc1

LC retention time [1] [min]	LC retention time [2] [min]	SMILES
4.92	3.66	O=C(O)CCCc1c[nH]c2ccccc12
3.93	2.59	O=C(O)C(O)Cc1c[nH]c2ccccc12 (centres undefined)
1.1	1.49	Nc1ccn(C2OC(CO)C(O)C2O)c(=O)n1 (centres undefined)
1.86	2.48	Nc1ncnc2c1ncn2C1OC(CO)C(O)C1O (centres undefined)
4.09	2.72	COc1ccc2[nH]cc(CC(=O)O)c2c1
3	2.67	Cc1ccc(S(=O)(=O)O)cc1
1.91	0.854	CC(=O)NC1C(O)OC(CO)C(O)C1OC(C)C(=O)O (centres undefined)
1.94	1.93	Oc1cccc(O)c1O
0.808	0.818	NC(C(=O)O)c1ccc(O)cc1 (centres undefined)
0.847	0.851	OCC1OC(OC2C(CO)OC(OC3C(CO)OC(O)C(O)C3O)C(O)C2O)C(O)C(O)C1O (centres undefined)
4.18	2.41	O=[N+]([O-])c1ccc(O)cc1
2.36	0.87	O=C(O)c1ccc(CO)o1
4.63	3.13	O=C(O)CCc1c[nH]c2ccccc12
5.11	4.37	CCCCNC(=O)NS(=O)(=O)c1ccc(C)cc1
1.54	1.94	Cc1ncc(CO)c(CO)c1O
0.855	0.799	NC(=O)NC1NC(=O)NC1=O (centres undefined)
4.21	2.51	O=C(O)Cc1c[nH]c2ccccc12
0.981	0.76	CC(=O)NC(CC(N)=O)C(=O)O (centres undefined)
1.82	2.54	CNC(=O)c1cccnc1
2.5	2.58	NC(Cc1ccc([N+](=O)[O-])cc1)C(=O)O (centres undefined)
3.39	3.44	CCC1(C)CC(=O)NC1=O (centres undefined)
4.88	4.57	CCCCCCSCC(NC(=O)CCC(N)C(=O)O)C(=O)NCC(=O)O (centres undefined)
3.22	2.96	NCCCCC(NC(CCc1ccccc1)C(=O)O)C(=O)N1CCCC1C(=O)O (centres undefined)

LC retention time [1] [min]	LC retention time [2] [min]	SMILES
4.36	4.18	COC(=O)c1ccc(O)c(OC)c1
1.97	1.9	NC(Cc1c[nH]c2ccc(O)cc12)C(=O)O (centres undefined)
3.43	1.59	COc1cc(C(=O)O)cc(OC)c1O
2.44	3.46	NC(=O)C(N)Cc1c[nH]c2ccccc12 (centres undefined)
1.4	2.14	NC(=O)c1cccnc1
2.59	1.95	NCCCCCCCC(=O)O
3.52	3.63	NC(=O)Cc1c[nH]c2ccccc12
2.8	2.02	O=C(NC(O)C(=O)O)c1ccccc1 (centres undefined)
0.799	0.804	CC(O)CC(=O)O (centres undefined)
0.85	0.853	OC1C2COC(O2)C(O)C1O (centres undefined)
4.15	4.23	Oc1ccc(C=Cc2cc(O)cc(O)c2)cc1
2.12	1.78	CC1=CC(=O)NS(=O)(=O)O1
2.8	2.68	Cn1c(=O)[nH]c2ncn(C)c2c1=O
4.08	3.29	CCCCCC(=O)NCC(=O)O
1.95	0.923	CC(=O)NCCCC(=O)O
0.795	0.906	O=C1OC(CO)C(O)C(O)C1O (centres undefined)
3.18	2.57	O=C(O)c1cc(=O)c2ccccc2[nH]1
2.95	3.04	O=C1CCCc2[nH]ccc21
4.87	5.05	CC12CCC(=O)C=C1CCC1C2C(=O)CC2(C)C1CCC2(O)C(=O)CO (centres undefined)
2.95	1.73	NC(CC(=O)O)C(=O)NC(Cc1ccccc1)C(=O)O (centres undefined)
3.99	2.99	CC(=O)NC(Cc1ccccc1)C(=O)O (centres undefined)
2.35	3.57	CC(C)NCC(O)COc1ccc(CC(N)=O)cc1 (centres undefined)

SMILES	LC retention time [1] [min]	LC retention time [2] [min]
O=c1ccc2cc(OC3OC(CO)C(O)C(O)C3O)c(O)cc2o1 (centres undefined)	2.78	2.17
CNCCc1ccc(O)cc1	1.79	2.43
CNCC(O)c1ccc(O)cc1 (centres undefined)	0.855	1.96
CNCCc1c[nH]c2ccccc12	2.87	3.84
O=C(O)CNC(=O)c1cccnc1	1.74	1.67
O=C(O)CCCCCCCCCO	5.06	3.96
